We go through one compound from patent publication US6451828B1, “Selective inhibition of glutaminase by bis-thiadiazoles” (priority 2000, dated 2002).

Test [1] addresses T1, glutaminase activity in rat brain membranes (Rattus norvegicus, UniProt P13264).
T1 construct: from tissue; host or cells: rat brain membranes
T1 sequence (P13264 55-674): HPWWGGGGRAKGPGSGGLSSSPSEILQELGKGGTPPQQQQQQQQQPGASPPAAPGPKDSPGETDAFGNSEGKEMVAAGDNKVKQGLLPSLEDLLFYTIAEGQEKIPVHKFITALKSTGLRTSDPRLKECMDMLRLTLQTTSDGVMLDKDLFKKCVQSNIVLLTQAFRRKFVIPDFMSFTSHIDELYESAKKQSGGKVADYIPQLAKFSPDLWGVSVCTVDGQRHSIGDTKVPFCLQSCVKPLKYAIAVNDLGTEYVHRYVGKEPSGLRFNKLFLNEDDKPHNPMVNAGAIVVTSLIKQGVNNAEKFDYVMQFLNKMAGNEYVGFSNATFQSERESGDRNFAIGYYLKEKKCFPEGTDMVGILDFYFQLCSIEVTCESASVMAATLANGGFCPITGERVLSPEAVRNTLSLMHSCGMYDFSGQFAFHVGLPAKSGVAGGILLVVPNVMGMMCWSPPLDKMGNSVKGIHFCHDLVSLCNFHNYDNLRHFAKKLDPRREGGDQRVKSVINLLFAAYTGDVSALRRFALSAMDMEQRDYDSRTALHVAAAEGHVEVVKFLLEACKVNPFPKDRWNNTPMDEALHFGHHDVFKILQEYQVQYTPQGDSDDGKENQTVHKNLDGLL
Nature of the test: Inhibition of glutaminase activity in rat brain membranes. The note with it: PO4 conc. = 8 mM; FIG. 2. Type of test: biochemical. The method, then: Aliquots of 10 μL were removed at 0, 85, and 195 min, added to 90 μL 1:3 DMF/H2O, and analyzed for glutamate by HPLC following derivatization with o-phthaldialdehyde and 2-mercaptoethanol (see Lo et al. 1998).

Another test concerns microglia (BV-2) cells. The experiment in a line: Inhibition of microglial glutamate secretion. Type of test: cell-based. The note with it: Mus musculus. On the procedure: As described in Wood, glutamate efflux from microglia is dependent on the presence of added external glutamine. […] Therefore, the concentration of glutamate in the culture medium can be used directly as a measure of glutamate production by these cells.
In assaying the invention compounds, microglia (BV-2) cells were cultured using standard methods, as described in Example 4. On the day of the experiment, cells were incubated in glutamine free medium for 1 to 1.5 hours, then glutamine and test compounds, dissolved in glutamine free medium, were added. Aliquots were removed at 2 h and 4 h for glutamate analysis.
Inhibition of Microglial Glutamate Secretion
BV-2 cells were cultured in 24 well plates using Dulbeccos minimal essential medium containing 10% heat inactivated fetal bovine serum, and grown to 70-80% confluency before use. On the day of the experiment, cells were placed in glutamine free medium for 1 to 1.5 hours. […] This solution was used to replace one half of the 0.5 mL culture medium volume at the end of the glutamine free incubation. Aliquots of 10 μL medium were removed at 2 h and 4 h and placed in 96 well microtiter plates with 90 μL DMF/water (1:9) for glutamate analysis.

The subject of a further test is astrocytes. Nature of the test: Intracellular amino acids in primary cultures of astrocytes. Type of test: cell-based. On the procedure: To produce dose response curves for lowering of intracellular Glu and Asp (FIG. 6A-B), the procedure was repeated with 4 days (for cerebellar granule cells) and 12 days of incubation (for astrocytes). […] Results are shown in FIGS. 6A-B. Data are expressed as the ratio of Glu, Asp, or GABA to Ala (neurons and astrocytes) or Ser (astrocytes).

Test [2] relates to intestinal epithelial (CACO2) cells. The experiment in a line: Intracellular nucleotides in intestinal epithelial cells. Type of test: cell-based. The note with it: at 10 μM, FIG. 5B. On the procedure:
The remaining volume of the extracts was used for chromatographic determination of nucleic acids, as described in Di Pierro et al. This assay reflects the activity of a variety of glutamine amidotransferases, including CTP synthetase, which are mechanistically and functionally related to glutaminase.
CTP synthetase is a glutamine amidotransferase which synthesizes CTP by adding the amide nitrogen of glutamine to UTP.
Intestinal epithelial (CACO2) cells were grown in 12 well plates with Eagles minimal essential medium containing 2 mM glutamine, as recommended (American Tissue Culture Collection). When the cells reached about 80% confluency, fresh glutamine was added to 2 mM. […] After 6.5 h of incubation, cultures were washed twice with phosphate buffered saline and extracted with 100 μL 1M perchloric acid. Extracts were neutralized with 30 μL of 5M potassium carbonate, centrifuged, and analyzed by HPLC for nucleotides, as described in Di Pierro et al. 1995, and for amino acids, as described in Lo et al. 1998. Results are shown in FIG. 5A (amino acids) and FIG. 5B (nucleotides).

Another test deals with T2, caspase 9 (Homo sapiens, UniProt P55211).
T2 sequence (P55211 1-416): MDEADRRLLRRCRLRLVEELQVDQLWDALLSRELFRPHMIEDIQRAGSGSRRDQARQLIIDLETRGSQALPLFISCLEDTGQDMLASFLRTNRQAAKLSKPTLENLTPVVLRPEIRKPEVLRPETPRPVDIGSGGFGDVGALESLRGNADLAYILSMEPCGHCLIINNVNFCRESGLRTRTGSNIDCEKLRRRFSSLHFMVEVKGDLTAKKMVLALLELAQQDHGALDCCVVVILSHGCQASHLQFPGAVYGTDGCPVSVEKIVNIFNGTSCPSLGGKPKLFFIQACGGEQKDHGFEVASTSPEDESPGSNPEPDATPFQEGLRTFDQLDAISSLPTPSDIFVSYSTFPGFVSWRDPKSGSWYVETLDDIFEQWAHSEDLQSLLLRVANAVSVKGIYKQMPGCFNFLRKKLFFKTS
The experiment in a line: Specificity: effect on mechanistically related enzyme. The test is classed as biochemical. The note with it: at 30 μM (data not shown). The method, then: (§1) Specificity for glutaminase was evaluated at two levels. Compounds were evaluated for specific interactions with several thiol hydrolases (cathepsin B, caspase-9, calpain-1, and […]). These are cysteine proteases which are believed to function by a mechanisms similar to that of glutaminase. Compounds were also evaluated for effects on intracellular amino acids and nucleotides in CACO2 (intestinal epithelial) cells (Example 5), and for effects on amino acids in primary cultures of cerebellar neurons (granule cells) and astrocytes (Examples 6-7). These measurements reflect interactions with other glutamine utilizing enzymes involved in amino acid and nucleic acid biosynthesis and homeostasis. For example, a decrease in cytidine triphosphate (CTP) and an increase in uridine triphosphate (UTP) on treatment with DON (6-diazo-5-oxo-L-norleucine), a known nonselective antiglutamine affinity label, is indicative of inhibition of the activity of CTP synthetase, for which UTP is the substrate and CTP the product.

A further test addresses cathespin B (Homo sapiens, UniProt P07858). Described as above. Type of test: biochemical. The note with it: at 30 μM (data not shown). The method, then:
as §1

The next test concerns the target thrombin (Homo sapiens, UniProt P00734). The test is described as above. The note with it: at 30 μM (data not shown). Type of test: biochemical. On the procedure:
as §1

pIC50: −log10 of the molar value.

Consider `O=C(Cc1ccccc1)Nc1nnc(CCSCCc2nnc(NC(=O)Cc3ccccc3)s2)s1` [SNX-1770, bis-2′-[5-(phenylacetamido)-1,3,4-thiadiazol-2-yl]ethyl sulfide], for which the “Inhibition of glutaminase activity in rat brain membranes” value in test [1] is recorded as “inhibition of glutaminase activity”. Further, the inhibition at 10 µM in the test on microglia (BV-2) cells (BV-2, at 10 μM, read-out: Inhibition of glutamate efflux by microglia) was roughly 85%. Besides, the pIC50 was 6.92 to 7.10 in the test with microglia (BV-2) cells (BV-2 cells, glutamine added, FIG. 4, read-out: IC50, inhibition of glutamate efflux by microglia) and 6.52 to 7.00 in the test with astrocytes (Astrocyte, primary cultures of astrocytes, read-out: IC50, lowering of cellular glutamate). Further, the “Lowering of cellular glutamate” value with astrocytes (astrocytes, partial and specific) is roughly 30%. For the same compound, the “Effect on intracellular (non-glutamate) amino acids, including serine, glycine, arginine, alanine, taurine” value in the test on astrocytes (at 10 μM, astrocytes) was “no effect”. The “Effect on intracellular nucleotides” value in test [2] is on record as “no effect”. Further, the “Effect on caspase 9” value on caspase 9 is given as “Nor did it have any effect”. Moreover, on cathespin B, the “Effect on cathespin B” value is “Nor did it have any effect”. The Effect on thrombin result on thrombin is given as “Nor did it have any effect”.

By inhibition is commonly meant the drop in the measured response relative to a control, in per cent. As a reminder, the pIC50 is the IC50 on a negative log10 scale, so that one unit is a factor of ten.
